From patent publication US20120328696A1, “ANTI-PARKINSONIAN COMPOUND ACETYLSALICYLIC ACID MALTOL ESTER” (Hutecs Korea Pharmaceutical Co., Ltd., priority 2008, published 2012)

How the values were obtained:
Format in all cases: in vivo
GPx-1 = test: Striatal glutathione peroxidase (GPx) activity after MA; conditions: p.o.; AME 50, EBS 20, rottlerin 20 mg/kg; MA 8 mg/kg i.p. x4; GPx-1 (+/+) mice
Protocol: (§1) The mice received four times of MA (8 mg/kg, ip) or saline as a 2 hr-time interval. Chemicals (AME, EBS, and PKC inhibitors) were administrated for 5 consecutive days (twice daily), and were given 2 times at 4 hr and 30 min before the first MA injection as shown in the experimental schedule. Animals were sacrificed at 4 hrs and 3 days after the final MA administration.
GPx were immediately measured from dissected striatal tissues. The tissues were sonicated in ice-cold 50 mM potassium phosphate buffer (pH 7.4, containing 2 mM EDTA), and were centrifuged at 11,000×g for 15 min at 4° C. The resulting supernatants were collected and the protein concentrations were quantified with the Quant-iT assays, using the Qubit™ fluorometer (Invitrogen, Carlsbad, Calif., USA). Cellular GPx activity was measured by the method of Paglia and Valentine (1967) with minor modification (Shin et al., 2008). The incubation mixture contained 1 mM glutathione, 0.2 mM NADPH, and 1.4 IU glutathione reductase in 0.05 M potassium phosphate buffer, pH 7.0. The reaction was initiated by the simultaneous addition of supernatant (0.3-0.8 mg protein) and 0.25 mM H2O2. The change in absorbance at 340 nm was followed by for 4.5 min and 1 UI of GPx activity was defined as the amount required to oxidize 1 μM NADPH/min, based on the molar absorptivity of […] for NADPH.

protein carbonyl = test: Striatal protein oxidation (protein carbonyl) after MA; conditions: biochemical assay and slot blot; striatum, 3 days after final MA; p.o.; AME 50, EBS 20, rottlerin 20 mg/kg; GPx-1 (+/+) and (−/−) mice
Protocol: as §1
The amount of oxidized proteins was measured using the Oxyblot kit (Chemicon International, CA) according to the instruction provided by manufacturer. Briefly, the protein carbonyl content was measured by first forming labeled protein hydrazone derivatives using 2,4-dinitrophenylhydrazide (DNP). The DNP-derivatized protein samples were transferred onto PVDF membrane by slot blot apparatus (GE Healthcare). Blots were then incubated with primary antibody specific to the DNP moiety, followed by incubation with a HRP-conjugated secondary antibody. Subsequent visualization was performed using enhanced chemiluminescence system (ECL Plus®, GE healthcare) (Gemma et al., 2004).
The extent of protein carbonyl oxidation in the striatum was assessed by measuring the content of protein carbonyl groups, which was determined spectrophotometrically with the 2,4-dinitrophenyl-hydrazine (DNPH)-labeling procedure (Kim et al., 1997b, 2000b, 2002) as described by Oliver et al. (1987). The results were expressed as nmol of DNPH incorporated/mg protein based on the extinction coefficient for aliphatic hydrazones of 21 mM^−1 cm^−1. Protein was measured using the BCA protein assay reagent (Pierce, Rockford, Ill., USA).

tyrosine hydroxylase = test: Striatal and nigral TH-like immunoreactivity after MA (immunocytochemistry); conditions: p.o., AME 50, EBS 20, rottlerin 20 mg/kg, MA 8 mg/kg i.p. x4, GPx-1 (+/+) and (−/−) mice; for effect on MA-induced reduction in striatal TH-IR: striatum; for effect on MA-induced nigral reduction in TH-IR: substantia nigra pars compacta
Protocol: as §1
Animals were sacrificed at 4 hours and 3 days after the last MA injection. They were anesthetized with 60% urethane and perfused transcardially with 50 ml of 50 mM phosphate buffered saline (PBS), followed by 50 ml of a mixture of 4% paraformaldehyde in PBS. The rate of perfusion was 50 ml/min. The brains were removed, post-fixed at 4° C. for 24 h in the same fixative and then cryoprotected in 30% sucrose in PBS. The brains were cut on a horizontal sliding microstome into 40 μm transverse free-floading sections (Kim et al., 1999).
The immunocytochemistry was performed as described previously (Kim et al., 2000a, b). Briefly, prior to incubation with the primary antibodies, sections were preincubated with 0.3% hydrogen peroxide in PBS for 30 min (to block endogenous peroxidase activity), then in PBS containing 0.4% Triton X-100 for 20 min and 1% normal serum for 20 min. The sections were then incubated for 48 h at 4° C. in primary antibody against tyrosine hydroxylase (1:500, Chemicon, Termecula, Calif., USA), GPx1 (1:500, AbFrontier, Seoul, Korea), PKC (1:200, Santa Cruz biotechnology INC, CA, USA) or F4/80 (1:50, Serotec, Raleigh, N.C., USA). The sections were further incubated with secondary biotinylated antisera (1:1000 dilution; Vector, Brulingame, Calif.) for 1 hr, and immersed in avidin-biotin-peroxidase complex (ABC Elite kit, Vector) for 1 hr. Sections were always washed three times with PBS (pH 7.4) between each incubation step. 3,3′-diaminobenzidine (DAB) was used as a chromogen.

CC(=O)Oc1ccccc1C(=O)Oc1c(C)occc1=O [AME, 3-(2-methyl-4-pyronyl)-2-acetyloxybenzoate]
effect on MA-induced decrease in striatal GPx-1 activity (GPx-1): inhibited MA-induced decrease
effect on MA-induced increase in protein oxidation (protein carbonyl): significantly attenuated
effect on MA-induced reduction in striatal TH-IR (tyrosine hydroxylase): attenuated this reduction in striatal TH-IR
effect on MA-induced nigral reduction in TH-IR (tyrosine hydroxylase): significantly attenuated MA-induced nigral reduction in TH-IR

CC(=O)c1c(O)c(C)c(O)c(Cc2c(O)c3c(c(C(=O)/C=C/c4ccccc4)c2O)OC(C)(C)C=C3)c1O [rottlerin]
effect on MA-induced decrease in striatal GPx-1 activity (GPx-1): inhibited MA-induced decrease
effect on MA-induced increase in protein oxidation (protein carbonyl): significantly attenuated
effect on MA-induced reduction in striatal TH-IR (tyrosine hydroxylase): attenuated this reduction in striatal TH-IR
effect on MA-induced nigral reduction in TH-IR (tyrosine hydroxylase): significantly attenuated MA-induced nigral reduction in TH-IR

O=c1c2ccccc2[se]n1-c1ccccc1 [EBS, 2-phenyl-1,2-benzisoselenazol-3(2H)-one]
effect on MA-induced decrease in striatal GPx-1 activity (GPx-1): inhibited MA-induced decrease
effect on MA-induced increase in protein oxidation (protein carbonyl): significantly attenuated
effect on MA-induced reduction in striatal TH-IR (tyrosine hydroxylase): attenuated this reduction in striatal TH-IR
effect on MA-induced nigral reduction in TH-IR (tyrosine hydroxylase): significantly attenuated MA-induced nigral reduction in TH-IR
